# Assay results from patent US6951655B2, “Pro-micelle pharmaceutical compositions” (IMI Biomed, Inc., priority 2001, dated 2005).
# Legend:
# rabbits [1] = test: Blood glucose in rabbits after i.v. injection before glucose challenge; assay type: in vivo, rabbit
# Procedure: FIG. 11 depicts blood glucose levels when a standard regular insulin (0.2 ml of 3.1 IU/ml) or an extraction of the pro-micelle (1.5 ml. of 0.4 IU/ml) was intravenously (i.v.) injected into rabbits one minute before a glucose challenge of 250 mg/kg. […] With the formulation of the invention, a hypoglycemic effect was noticed within 35 minutes, and lasted for the duration of the experiment of 120 minutes or more.
# rabbits [2] = test: Blood glucose in rabbits after i.p. administration before glucose challenge; assay type: in vivo, rabbit; settings: i.p. 15 minutes before glucose challenge of 250 mg/kg, FIG. 10
# Procedure: FIG. 10 depicts blood glucose when a standard regular insulin solution (0.3 ml of 3.1 IU/ml) or an extraction of the pro-micelle (2.5 ml of 0.4 IU/ml) was administered intraperitonally (i.p.) to rabbits 15 minutes before a glucose challenge of 250 mg/kg.
substance,measurement,setting,value
"standard regular insulin: Standard regular insulin solution, 3.1 IU/ml, comparator",duration of hypoglycemic effect,rabbits [1]; i.v.,short in duration
same,blood glucose course after i.v. injection,"rabbits [1]; i.v. one minute before glucose challenge of 250 mg/kg, FIG. 11",rapidly decreased from 20 to 45 minutes
same,blood glucose relative to control level within 90 minutes of injection,"rabbits [1]; i.v., within 90 minutes of the insulin injection",10-30 % of the control level
same,effect on blood sugar after i.p. injection,rabbits [2],decreased blood sugar
